Patent US20210355106A1, “NEW AMINO-PYRIMIDONYL-PIPERIDINYL DERIVATIVES, A PROCESS FOR THEIR PREPARATION AND PHARMACEUTICAL COMPOSITIONS CONTAINING THEM” (LES LABORATOIRES SERVIER, priority 2018, published 2021)

Legend:
USP7 = target: T1, USP7 (Homo sapiens, UniProt Q93009, C315A); test: Inhibition of USP7 by Fluorescence Intensity (FLINT) readings, Ubiquitin-Rhodamine-110 substrate; type: biochemical; conditions: 0.25 nM His-His-USP7 (aa208-560), 60 minutes at 30° C. preincubation; Ki determined from IC50 according to Cer et al.
T1 construct: 0.25 nM His-His-USP7 (aa208-560, |C315A|) was incubated with compound; His-His (N)
Outline: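 His-tagged USP7 (aa208-560, C315A), 0.25 nM, preincubated with compound 60 min at 30 °C in 100 mM Bicine pH 8.0, 0.01% Triton X-100, 1 mM TCEP, 10% DMSO. Ubiquitin-Rhodamine-110 (50 nM or 4 μM) added; kinetic fluorescence (Ex 485/Em 535 nm) over 21 min; IC50 from 11-point curves, Ki derived from IC50.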

[1] = test system: Z138 mantle cell lymphoma tumour cell lines; test: In vitro cytotoxicity, MTT assay; type: cell-based; conditions: Homo sapiens, Z-138; Z138 cells, exposed to the test compounds for 96 hours
Outline: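 Z138 cells exposed to compounds for 96 hours, then MTT added for 4 hours. Formazan absorbance at 540 nm serves as the measure of viable cell number.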

T1 sequence (Q93009 208-560 C315A): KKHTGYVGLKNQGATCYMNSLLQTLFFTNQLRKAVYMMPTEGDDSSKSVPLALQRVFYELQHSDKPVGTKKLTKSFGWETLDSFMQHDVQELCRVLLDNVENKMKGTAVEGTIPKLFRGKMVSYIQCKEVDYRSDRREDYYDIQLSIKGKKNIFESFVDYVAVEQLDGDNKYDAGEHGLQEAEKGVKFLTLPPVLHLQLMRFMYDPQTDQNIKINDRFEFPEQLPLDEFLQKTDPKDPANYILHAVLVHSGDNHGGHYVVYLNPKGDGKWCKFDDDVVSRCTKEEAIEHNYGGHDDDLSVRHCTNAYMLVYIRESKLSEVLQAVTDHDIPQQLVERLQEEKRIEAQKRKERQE

SMILES	Ki (USP7)	IC50 [1]
Cc1cncc(C(=O)N2CC[C@@H](C(=O)N3CCC(O)(Cn4cnc(Oc5ccc(F)cc5)c(N)c4=O)CC3)[C@H](c3ccccc3)C2)c1 [Example 92, 5-amino-6-(4-fluorophenoxy)-3-({4-hydroxy-1-[(3R,4R)-1-(5-methylpyridine-3-carbonyl)-3-phenylpiperidine-4-carbonyl]piperidin-4-yl}methyl)pyrimidin-4(3H)-one]	4.9 nM	45.7 nM
COc1cc(Oc2ncn(C[C@@]3(O)CCN(C(=O)[C@@H]4CCN(Cc5cccnn5)C[C@H]4c4ccccc4)CC3(F)F)c(=O)c2N)ccc1F [Example 214]	48.3 nM	31.3 nM
Cn1cnc2ccc(C(=O)N3CC[C@@H](C(=O)N4CCC(O)(Cn5cnc(Oc6ccc(F)cc6)c(N)c5=O)CC4)[C@H](c4ccccc4)C3)cc2c1=O [Example 123, 6-[(3R,4R)-4-(4-({5-amino-4-(4-fluorophenoxy)-6-oxopyrimidin-1(6H)-yl]methyl)-4-hydroxypiperidine-1-carbonyl)-3-phenylpiperidine-1-carbonyl]-3-methylquinazolin-4(3H)-one]	6.92 nM	43.2 nM
Cc1cccc(C(=O)N2CC[C@@H](C(=O)N3CCC(O)(Cn4cnc(Oc5ccc(F)cc5)c(N)c4=O)CC3)[C@H](c3ccccc3)C2)n1 [Example 93]	51 nM	86.4 nM
